Assay results published in patent publication US20240373844A1, “PYROGLUTAMIC ACID AS AN HERBICIDE SAFENER AND METHODS OF USE THEREOF” (Verdesian Life Sciences U.S., LLC, priority 2021, published 2024).

Tested on: corn (Zea mays) plants
Assay: Corn plants treated with glyphosate with and without PGA soil drench: dry biomass and leaf area (Experiment 1)
Format: in vivo
Settings: 7 days after planting
Protocol: Corn seeds were sown in standard 10 cm diameter pots in peat-based media (Fafard #2/Sunshine Mix #8 soilless media: 75% Canadian sphagnum peat moss, 20% perlite, 5% vermiculite, trace: dolomitic limestone, wetting agent, silicon). Plants were grown under the following environmental conditions: • Temperature: 30° C. day/23° C. • Relative humidity: 60-70% • Photoperiod: 16 hours light/8 hours dark • Light intensity: 800-1000 μMols/m^2/s Treatments were administered 5 days after planting. In experiment 1, glyphosate was applied at 1%, 10%, and 100% of label rate, with and without PGA (0.137 g/L), as outlined in the table below. In Experiment 2, Bayer All-in-One® herbicide was applied at 10% and 100% of the label rate, with and without PGA (0.137 g/L). In both treatments, control plants received water. In both experiments, herbicide was applied as a 0.5 mL droplet by pipet on the 1st fully expanded leaf; PGA was applied as a 50 mL soil drench. Plants were grown in a completely randomized design for an additional 2 days to allow the treatments to take effect. At 7 days after planting, plants were photographed, and destructively harvested for leaf area and dry biomass.

SMILES | Avg(DryWt) (1% Label Rate Glyphosate, 0.0 g/L PGA) [g] | Avg(DryWt) (10% Label Rate Glyphosate, 0.0 g/L PGA) [g] | Avg(DryWt) (100% Label Rate Glyphosate, 0.0 g/L PGA) [g] | Avg(DryWt) (0.137 g/L PGA drench with 1% Label Rate Glyphosate) [g] | Avg(DryWt) (0.137 g/L PGA drench with 10% Label Rate Glyphosate) [g] | Avg(DryWt) (0.137 g/L PGA drench, 0 Glyphosate) [g]
O=C(O)CNCP(=O)(O)O [Glyphosate, glyphosate] | 0.12 | 0.06 | 0.05 | – | – | –
O=C1CC[C@@H](C(=O)O)N1 [PGA, pyroglutamic acid] | – | – | – | 0.10 | 0.10 | 0.15
